Key:
[1] = tested on: Chenopodium spp., Papaver spp., Polygonum spp., Veronica spp. or Viola spp.; experiment: Post-emergence effect on weeds (greenhouse pot test, visual scoring); assay type: in vivo, monocotyledonous and dicotyledonous weeds; details: treated at three-leaf stage; visual scoring after about 3 to 4 weeks; application rate of 0.5 kg and less of active substance per hectare
[2] = tested on: Cyperus spp., Echinochloa spp., Digitaria spp., Sagitaria spp. and Scirpus spp.; experiment: Action on harmful plants in rice (paddy rice conditions, visual scoring); assay type: in vivo, typical rice weeds (gramineous and broad-leaved); details: applied into the dammed water, visual scoring about three weeks after application
Outline: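 Rice and typical gramineous and broad-leaved rice weeds grown in closed pots in greenhouse under paddy conditions (2-3 cm water) to three-leaf stage (Echinochloa crus-galli 1.5-leaf), then treated with compounds. Plants kept under optimum greenhouse conditions throughout; effect scored visually.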

CC(Nc1nc(N)nc(C(C)(C)F)n1)c1ccc(C(F)=C(F)F)cc1 (stereo not shown) [Product P17.1568]
herbicidal activity post-emergence against harmful plants [1]: very good herbicidal activity
herbicidal activity against harmful plants which are typical for rice crops [2]: very good herbicidal activity

C#Cc1cccc(C(C)Nc2nc(N)nc(C(C)(C)F)n2)c1 (stereo not shown) [Product P17.1579]
herbicidal activity post-emergence against harmful plants [1]: very good herbicidal activity
herbicidal activity against harmful plants which are typical for rice crops [2]: very good herbicidal activity

C#Cc1ccc(C(C)Nc2nc(N)nc(C(C)(C)F)n2)cc1 (stereo not shown) [Product P17.1580]
herbicidal activity post-emergence against harmful plants [1]: very good herbicidal activity
herbicidal activity against harmful plants which are typical for rice crops [2]: very good herbicidal activity

CC#Cc1cccc(C(C)Nc2nc(N)nc(C(C)(C)F)n2)c1 (stereo not shown) [Product P17.1582]
herbicidal activity post-emergence against harmful plants [1]: very good herbicidal activity
herbicidal activity against harmful plants which are typical for rice crops [2]: very good herbicidal activity

CC#Cc1ccc(C(C)Nc2nc(N)nc(C(C)(C)F)n2)cc1 (stereo not shown) [Product P17.1583]
herbicidal activity post-emergence against harmful plants [1]: very good herbicidal activity
herbicidal activity against harmful plants which are typical for rice crops [2]: very good herbicidal activity

CCCCC#Cc1cccc(C(C)Nc2nc(N)nc(C(C)(C)F)n2)c1 (stereo not shown) [Product P17.1594]
herbicidal activity post-emergence against harmful plants [1]: very good herbicidal activity
herbicidal activity against harmful plants which are typical for rice crops [2]: very good herbicidal activity

CCCCC#Cc1ccc(C(C)Nc2nc(N)nc(C(C)(C)F)n2)cc1 (stereo not shown) [Product P17.1595]
herbicidal activity post-emergence against harmful plants [1]: very good herbicidal activity
herbicidal activity against harmful plants which are typical for rice crops [2]: very good herbicidal activity

CC(F)C#Cc1cccc(C(C)Nc2nc(N)nc(C(C)(C)F)n2)c1 (stereo not shown) [Product P17.1597]
herbicidal activity post-emergence against harmful plants [1]: very good herbicidal activity
herbicidal activity against harmful plants which are typical for rice crops [2]: very good herbicidal activity

CC(F)C#Cc1ccc(C(C)Nc2nc(N)nc(C(C)(C)F)n2)cc1 (stereo not shown) [Product P17.1598]
herbicidal activity post-emergence against harmful plants [1]: very good herbicidal activity
herbicidal activity against harmful plants which are typical for rice crops [2]: very good herbicidal activity

CC(O)C#Cc1cccc(C(C)Nc2nc(N)nc(C(C)(C)F)n2)c1 (stereo not shown) [Product P17.1600]
herbicidal activity post-emergence against harmful plants [1]: very good herbicidal activity
herbicidal activity against harmful plants which are typical for rice crops [2]: very good herbicidal activity

CC(O)C#Cc1ccc(C(C)Nc2nc(N)nc(C(C)(C)F)n2)cc1 (stereo not shown) [Product P17.1601]
herbicidal activity post-emergence against harmful plants [1]: very good herbicidal activity
herbicidal activity against harmful plants which are typical for rice crops [2]: very good herbicidal activity

CC(Nc1nc(N)nc(C(C)(C)F)n1)c1cccc(C2CC2)c1 (stereo not shown) [Product P17.1603]
herbicidal activity post-emergence against harmful plants [1]: very good herbicidal activity
herbicidal activity against harmful plants which are typical for rice crops [2]: very good herbicidal activity

CC(Nc1nc(N)nc(C(C)(C)F)n1)c1ccc(C2CC2)cc1 (stereo not shown) [Product P17.1604]
herbicidal activity post-emergence against harmful plants [1]: very good herbicidal activity
herbicidal activity against harmful plants which are typical for rice crops [2]: very good herbicidal activity

C#Cc1ccc(C(C)Nc2nc(N)nc(C(C)(C)F)n2)cc1F (stereo not shown) [Product P17.1620]
herbicidal activity post-emergence against harmful plants [1]: very good herbicidal activity
herbicidal activity against harmful plants which are typical for rice crops [2]: very good herbicidal activity

C#Cc1cc(C(Nc2nc(N)nc(C(C)(C)F)n2)C2CC2)ccc1F (stereo not shown) [Product P19.309]
herbicidal activity post-emergence against harmful plants [1]: very good herbicidal activity
herbicidal activity against harmful plants which are typical for rice crops [2]: very good herbicidal activity

C#Cc1c(F)cc(C(Nc2nc(N)nc(C(C)(C)F)n2)C2CC2)cc1F (stereo not shown) [Product P19.352]
herbicidal activity post-emergence against harmful plants [1]: very good herbicidal activity
herbicidal activity against harmful plants which are typical for rice crops [2]: very good herbicidal activity

CC#Cc1cc(C(Nc2nc(N)nc(C(C)(C)F)n2)C2CC2)ccc1F (stereo not shown) [Product P19.384]
herbicidal activity post-emergence against harmful plants [1]: very good herbicidal activity
herbicidal activity against harmful plants which are typical for rice crops [2]: very good herbicidal activity

CC#Cc1c(F)cc(C(Nc2nc(N)nc(C(C)(C)F)n2)C2CC2)cc1F (stereo not shown) [Product P19.428]
herbicidal activity post-emergence against harmful plants [1]: very good herbicidal activity
herbicidal activity against harmful plants which are typical for rice crops [2]: very good herbicidal activity

CC(C)(F)c1nc(N)nc(NC(c2cccc(C(F)=C(F)F)c2)C2CC2)n1 (stereo not shown) [Product P19.1567]
herbicidal activity post-emergence against harmful plants [1]: very good herbicidal activity
herbicidal activity against harmful plants which are typical for rice crops [2]: very good herbicidal activity

CC(C)(F)c1nc(N)nc(NC(c2ccc(C(F)=C(F)F)cc2)C2CC2)n1 (stereo not shown) [Product P19.1568]
herbicidal activity post-emergence against harmful plants [1]: very good herbicidal activity
herbicidal activity against harmful plants which are typical for rice crops [2]: very good herbicidal activity

C#Cc1cccc(C(Nc2nc(N)nc(C(C)(C)F)n2)C2CC2)c1 (stereo not shown) [Product P19.1579]
herbicidal activity post-emergence against harmful plants [1]: very good herbicidal activity
herbicidal activity against harmful plants which are typical for rice crops [2]: very good herbicidal activity

C#Cc1ccc(C(Nc2nc(N)nc(C(C)(C)F)n2)C2CC2)cc1 (stereo not shown) [Product P19.1580]
herbicidal activity post-emergence against harmful plants [1]: very good herbicidal activity
herbicidal activity against harmful plants which are typical for rice crops [2]: very good herbicidal activity

CC#Cc1cccc(C(Nc2nc(N)nc(C(C)(C)F)n2)C2CC2)c1 (stereo not shown) [Product P19.1582]
herbicidal activity post-emergence against harmful plants [1]: very good herbicidal activity
herbicidal activity against harmful plants which are typical for rice crops [2]: very good herbicidal activity

CC#Cc1ccc(C(Nc2nc(N)nc(C(C)(C)F)n2)C2CC2)cc1 (stereo not shown) [Product P19.1583]
herbicidal activity post-emergence against harmful plants [1]: very good herbicidal activity
herbicidal activity against harmful plants which are typical for rice crops [2]: very good herbicidal activity

CC(C)(F)c1nc(N)nc(NC(c2cccc(C3CC3)c2)C2CC2)n1 (stereo not shown) [Product P19.1603]
herbicidal activity post-emergence against harmful plants [1]: very good herbicidal activity
herbicidal activity against harmful plants which are typical for rice crops [2]: very good herbicidal activity

CC(C)(F)c1nc(N)nc(NC(c2ccc(C3CC3)cc2)C2CC2)n1 (stereo not shown) [Product P19.1604]
herbicidal activity post-emergence against harmful plants [1]: very good herbicidal activity
herbicidal activity against harmful plants which are typical for rice crops [2]: very good herbicidal activity

CC(F)c1nc(N)nc(NCc2ccc(F)c(C(F)=C(F)F)c2)n1 (stereo not shown) [Product P21.5]
herbicidal activity post-emergence against harmful plants [1]: very good herbicidal activity
herbicidal activity against harmful plants which are typical for rice crops [2]: very good herbicidal activity

CC(F)c1nc(N)nc(NCc2cc(F)c(C(F)=C(F)F)c(F)c2)n1 (stereo not shown) [Product P21.49]
herbicidal activity post-emergence against harmful plants [1]: very good herbicidal activity
herbicidal activity against harmful plants which are typical for rice crops [2]: very good herbicidal activity

C#Cc1cc(CNc2nc(N)nc(C(C)F)n2)ccc1F (stereo not shown) [Product P21.309]
herbicidal activity post-emergence against harmful plants [1]: very good herbicidal activity
herbicidal activity against harmful plants which are typical for rice crops [2]: very good herbicidal activity

C#Cc1c(F)cc(CNc2nc(N)nc(C(C)F)n2)cc1F (stereo not shown) [Product P21.352]
herbicidal activity post-emergence against harmful plants [1]: very good herbicidal activity
herbicidal activity against harmful plants which are typical for rice crops [2]: very good herbicidal activity

CC#Cc1cc(CNc2nc(N)nc(C(C)F)n2)ccc1F (stereo not shown) [Product P21.384]
herbicidal activity post-emergence against harmful plants [1]: very good herbicidal activity
herbicidal activity against harmful plants which are typical for rice crops [2]: very good herbicidal activity

CC#Cc1c(F)cc(CNc2nc(N)nc(C(C)F)n2)cc1F (stereo not shown) [Product P21.428]
herbicidal activity post-emergence against harmful plants [1]: very good herbicidal activity
herbicidal activity against harmful plants which are typical for rice crops [2]: very good herbicidal activity

CC(F)c1nc(N)nc(NCc2ccc(F)c(C3CC3)c2)n1 (stereo not shown) [Product P21.916]
herbicidal activity post-emergence against harmful plants [1]: very good herbicidal activity
herbicidal activity against harmful plants which are typical for rice crops [2]: very good herbicidal activity

CC(F)c1nc(N)nc(NCc2cccc(C(F)=C(F)F)c2)n1 (stereo not shown) [Product P21.1567]
herbicidal activity post-emergence against harmful plants [1]: very good herbicidal activity
herbicidal activity against harmful plants which are typical for rice crops [2]: very good herbicidal activity

CC(F)c1nc(N)nc(NCc2ccc(C(F)=C(F)F)cc2)n1 (stereo not shown) [Product P21.1568]
herbicidal activity post-emergence against harmful plants [1]: very good herbicidal activity
herbicidal activity against harmful plants which are typical for rice crops [2]: very good herbicidal activity

C#Cc1cccc(CNc2nc(N)nc(C(C)F)n2)c1 (stereo not shown) [Product P21.1579]
herbicidal activity post-emergence against harmful plants [1]: very good herbicidal activity
herbicidal activity against harmful plants which are typical for rice crops [2]: very good herbicidal activity

C#Cc1ccc(CNc2nc(N)nc(C(C)F)n2)cc1 (stereo not shown) [Product P21.1580]
herbicidal activity post-emergence against harmful plants [1]: very good herbicidal activity
herbicidal activity against harmful plants which are typical for rice crops [2]: very good herbicidal activity

CC#Cc1cccc(CNc2nc(N)nc(C(C)F)n2)c1 (stereo not shown) [Product P21.1582]
herbicidal activity post-emergence against harmful plants [1]: very good herbicidal activity
herbicidal activity against harmful plants which are typical for rice crops [2]: very good herbicidal activity

CC#Cc1ccc(CNc2nc(N)nc(C(C)F)n2)cc1 (stereo not shown) [Product P21.1583]
herbicidal activity post-emergence against harmful plants [1]: very good herbicidal activity
herbicidal activity against harmful plants which are typical for rice crops [2]: very good herbicidal activity

CC(F)c1nc(N)nc(NCc2cccc(C3CC3)c2)n1 (stereo not shown) [Product P21.1603]
herbicidal activity post-emergence against harmful plants [1]: very good herbicidal activity
herbicidal activity against harmful plants which are typical for rice crops [2]: very good herbicidal activity

CC(F)c1nc(N)nc(NCc2ccc(C3CC3)cc2)n1 (stereo not shown) [Product P21.1604]
herbicidal activity post-emergence against harmful plants [1]: very good herbicidal activity
herbicidal activity against harmful plants which are typical for rice crops [2]: very good herbicidal activity

From US20030224942A1, “Alkylamino-1,3,5-triazines, processes for their preparation and their use as herbicides and plant growth regulators” (priority 2001, published 2003)
